For this assay, the target named is T1, WT hA3ARs (Homo sapiens, UniProt P0DMS8).
T1 construct: The full-length mouse (as previously described^25), human (purchased from the cDNA Resource Center), and human/mouse chimeric
T1 sequence (P0DMS8 1-318): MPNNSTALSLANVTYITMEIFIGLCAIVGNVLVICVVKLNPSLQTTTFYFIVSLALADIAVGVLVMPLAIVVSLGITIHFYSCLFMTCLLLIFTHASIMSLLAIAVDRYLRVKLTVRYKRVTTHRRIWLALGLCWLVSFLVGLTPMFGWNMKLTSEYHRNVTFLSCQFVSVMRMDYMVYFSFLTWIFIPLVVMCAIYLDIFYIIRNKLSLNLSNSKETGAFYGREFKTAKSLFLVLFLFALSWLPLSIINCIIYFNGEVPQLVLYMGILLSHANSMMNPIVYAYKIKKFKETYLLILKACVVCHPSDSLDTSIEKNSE
In words: [35S]GTPγS binding assay, Cl-IB-MECA concentration-response with modulator, HEK293 cell membranes. The format is biochemical. The conditions noted are these: for Emax (%): PAM derivative 1.0 μM, [35S]GTPγS binding induced by Cl-IB-MECA, WT hA3ARs, mean ± SEM, n = 3; for Emax (%) / IC50 ratio: Table 3; for IC50 ratio: ratio of IC50 values for Cl-IB-MECA, DMSO control compared to 100 nM PAM derivative. The source says: Creation of stable HEK293 cell lines expressing wild-type and human/mouse chimeric A3ARs: The full-length mouse (as previously described^25), human (purchased from the cDNA Resource Center), and human/mouse chimeric (custom synthesized by TOP Gene Technologies, St. Laurent, Quebec) A3AR cDNAs were subcloned into pcDNA3.1. The constructs were transfected into HEK293 cells (American Type Culture Collection, Manassas, VA) using Lipofectamine 2000 reagent (Invitrogen, Waltham, MA) and selected with 2 mg/ml of G418 in cell culture media (DMEM with 10% fetal bovine serum, 100 units/ml penicillin, and 100 μg/ml streptomycin). Cell lines derived from individual clones were maintained in cell culture media containing 0.6 mg/ml G418.
Membrane preparations: Transfected HEK293 cells were washed with PBS followed by homogenization in Buffer A containing 10 mM Na+-HEPES, 10 mM EDTA, 1 mM benzamidine (pH 7.4) and centrifugation at 27,000×g for 30 min at 4° C. Cell pellets were subsequently re-homogenized in HE buffer containing 10 mM Na+-HEPES, 1 mM EDTA, 1 mM benzamidine (pH 7.4) and re-centrifuged. The supernatant was discarded, and cell pellets were resuspended in HE buffer containing 10% sucrose and stored at −20° C.
[^35S]GTPγS binding assays: Cell membranes (5 μg protein) isolated from transfected HEK293 cells were pre-treated with modulators for one hour in 100 μl GTPγS binding buffer (50 mM Tris HCL [pH 7.4], 1 mM EGTA, 10 mM MgCl2, 100 mM NaCl, 0.004% CHAPS, and 0.5% BSA) in a 96-well large-volume polypropylene assay plate. In all assays, ZM-241385 (300 nM) and PSB-603 (300 nM) were included to block A2BARs expressed endogenously in HEK293 cells. Adenosine deaminase (ADA) (1 μl/ml) was also included to degrade any endogenous adenosine that might be produced during the assay, except when adenosine was used as the orthosteric agonist. The reactions were initiated by the addition of ~0.2 nM [^35S]GTPγS and agonist in 100 μl GTPγS binding buffer and allowed to incubate for two hours at room temperature. At the end of the two-hour incubation period, the membranes were harvested by rapid filtration through Whatman GF/B filters that had been pre-soaked for two hours in GTPγS binding buffer containing 0.02% CHAPS using a 96-well cell harvester (Brandel, Gaithersburg, MD). Radioactivity trapped in the filters was measured by liquid scintillation counting. Non-specific binding of [^35S]GTPγS was determined in the presence of 10 μM unlabeled GTPγS.
Data Analysis: EMax and EC50 values were calculated from data obtained from agonist concentration-response curves according to: E=([…])/(EC50+x), in which x is the agonist concentration. All values were statistically compared using a two-tailed unpaired Student's t-test or two-tailed paired Student's t-test, as indicated. For dissociation binding assays, fit to a one-phase exponential decay model: Y=(Y0−NS)^(−kxt), in which Y0 is specific binding at time 0, k is the dissociation rate constant, and t is the elapsed time. All values are presented as the mean±SEM. A p value <0.05 was considered statistically significant.
The two series of modulators were evaluated in a [^35S]GTPγS binding assay using isolated HEK293 cell membranes expressing the h A3AR, which detects receptor-induced G protein activation. For these studies, concentration-response curves with the orthosteric agonist Cl-IB-MECA were assessed in the presence of vehicle or 0.1, 1, or 10 μM modulator compound.
(Binding of GTPγS marks nucleotide exchange on a G protein.)

The mark [1] stands for this setting: increasing concentrations of modulator (0.1, 1, 10 μM).

As for `Clc1ccc(Oc2nc3ccccc3c3[nH]c(C4CCCCC4)nc23)cc1Cl` [46 (RK007-4-1, BS1006)], the “Emax (%)” value turned out to be 150.6 ± 5.8% and the IC50 ratio came to 0.738.
For `Cn1c(C2CCCCC2)nc2c(Nc3ccc(Cl)c(Cl)c3)nc3ccccc3c21` [35 (MRS8206)], in that order: 177.8 ± 11.5% and 1.12.
Regarding `Clc1ccc(Sc2nc3ccccc3c3[nH]c(C4CCCCC4)nc23)cc1Cl` [47 (RK007-2-1, BS1005)], the “Emax (%)” value was 137.6 ± 7.3% and the IC50 ratio came to 1.11.
Regarding `CN(c1ccc(Cl)c(Cl)c1)c1nc2ccccc2c2[nH]c(C3CCCCC3)nc12` [45 (RK006-100-1, BS1007)], the “Emax (%)” value is reported as 127.0 ± 6.0% and the IC50 ratio turned out to be 0.491.
As to `Clc1ccc(Nc2nc3ccccc3c3oc(C4CCCCC4)nc23)cc1Cl` [41 (RK005-84-1, BS1002)], the “Emax (%)” value was 149.9 ± 8.8% and the IC50 ratio was 0.406.
Regarding `OCCn1c(C2CCCCC2)nc2c(Nc3ccc(Cl)c(Cl)c3)nc3ccccc3c21` [36 (MRS8236)], the “Emax (%)” value came to 119.3 ± 6.2% and the IC50 ratio is on record as 0.764.
For `O=C(Nc1cc(Nc2ccc(Cl)c(Cl)c2)nc2ccccc12)C1CCCCC1` [LUF6096, reference compound], under setting [1], the “effect on EC50 (potency) of agonist Cl-IB-MECA, in words” value is given as “without reducing the potency of CI-IB-MECA” and the “effect on Emax (efficacy) of agonist Cl-IB-MECA, in words” value is recorded as “produced the greatest increase in efficacy”.
Turning to `Clc1ccc(Nc2nc3ccccc3c3sc(C4CCCCC4)nc23)cc1Cl` [42 (RK005-79-1, BS1001)], the “Emax (%)” value stood at 192.6 ± 11.2% and the IC50 ratio was determined as 0.505.
